Patent US10385378B2, “Method for determining toxic substances by plant gel agar coagulation” (priority 2017, dated 2019)
In brackets after ≈: the same amount, converted by molar mass. Read-outs that look alike come from different tables or passages of the source.

Assays:
in vitro [1] = conditions: mouse
Method: (§1) The MTT reagent was reduced to the purple crystalline formazan by the mitochondrial enzyme of surviving cells, and the crystals were dissolved by DMSO (Dimethyl Sulfoxide).
(§2) Subsequently, the absorbance of OD570 nm was measured. The color depth was proportional with the number of viable cells. […] After 3-5 hours, the cells were plated on 96-well plates and added to the sample (100 μl per well). After incubation for 24 hours, the MTT reagent (MTT 5 mg/ml dissolved in PBS) was reacted for 1 to 2 hours. The culture medium in the 96-well dish was blotted with the MTT reagent and dissolved in 100 μl of DMSO. The absorbance values were read at a wavelength of 570 nm with an ELISA kit.

in vitro [2] = conditions: mouse; remark: listed apart in the source
Method: as §1, §2

[3] = Agar coagulation time with cosmetic materials (3% agar); conditions: for Agar coagulation time with increase of sample concentration vs control group: FIGS. 2-6, mean±SEM, N=3
Method: The agar gel solution is dissolved to form a clear solution by changing the temperature in the range from a room temperature to 25° C. The agar gel solution is held in a carrier, such as a bottle, or a test tube, and is tilted at about 30°-60° (for example, 45°) from the vertical orientation. The coagulation time is defined when the agar gel solution ceases to flow.
The subject method utilizes a carrier (such as, for example, a test tube) to observe the effect of added cosmetic material to the coagulation of agar, so as to assess the toxicity of cosmetic materials. In this example, the present invention further evaluates the relevance of the cosmetic material toxicity based on the agar coagulation time with the cytotoxic IC50 testing.
The agar was prepared to be used as the main application material (the plant gel material) for the present invention, and a sample was prepared to test the coagulation time of the agar (for 25 samples under study) as described above. For example, the concentrations of agar solutions are 1%, 2%, 3%, 4%, 5%, and 6% (w/w). In one of the examples, 3% agar solution was heated to 100° C. to be dissolved, and then 100 ml or 200 ml of agar solution was added to a bottle or a test tube to be mixed with various samples (100 ml, or 200 ml). The bottle, or the test tube, were tilted about 45° relative to a plane each 30 seconds, to observe whether there is coagulation, and the cooling from 100° C. to room temperature and corresponding coagulation times were recorded.

[4] = Cell viability analysis (MTT) cytotoxicity, B16-F10 cells; conditions: mouse, B16-F10 cells (ATCC CRL-6475)
Method: as §1, §2

[5] = Cell viability analysis (MTT) cytotoxicity, skin 3T3 cells; conditions: mouse, skin 3T3 cells (ATCC CCL-92)
Method: as §1, §2

B16-F10 cells [6] = tested on: B16-F10 cells
Method: as §1, §2

skin 3T3 cells [7] = tested on: skin 3T3 cells
Method: as §1, §2

B16-F10 cells [8] = test: Cell viability analysis (MTT) cytotoxicity, B16-F10 cells; conditions: MTT, incubation for 24 hours
Method: as §1, §2

skin 3T3 cells [9] = test: Cell viability analysis (MTT) cytotoxicity, skin 3T3 cells; conditions: MTT, incubation for 24 hours
Method: as §1, §2

[10] = sample concentration 10 % (w/w)
[11] = sample concentration 20 % (w/w)
[12] = sample concentration 30 % (w/w)
[13] = sample concentration 15 % (w/w)

Agar coagulation time ([3]; sample concentration 1 % (w/w)) [min] | Agar coagulation time ([3]; sample concentration 5 % (w/w)) [min] | Agar coagulation time [3, 10] [min] | Agar coagulation time [3, 11] [min] | Agar coagulation time [3, 12] [min] | Compound | IC50 at 24 h [4] [µg/mL] | IC50 at 24 h [5] [µg/mL] | also measured
– | – | – | – | – | Nc1ccccc1O [2-Aminophenol] | – | – | IC50 (in vitro [1]): 41.2 µg/mL (≈ 0.378 mM); IC50 (in vitro [2]): 39.3 µg/mL (≈ 0.36 mM)
16.489 ± 0.475 | 20.455 ± 0.968 | 24.478 ± 1.280 | 43.671 ± 0.886 | 67.444 ± 1.687 | Nc1cccc(O)c1 [3-Aminophenol] | 126 (≈ 1.16 mM) | 308 (≈ 2.82 mM) | –
– | – | – | – | – | CC(O)CCO (centres unmarked) [Butylene Glycol] | – | – | IC50 (in vitro [1]): 7320 µg/mL (≈ 81.3 mM); B16-F10 cytotoxicity IC50 (B16-F10 cells [6]): >10000 µg/mL
13.220 ± 0.081 | 13.228 ± 0.053 | 13.333 ± 0.087 | 13.265 ± 0.067 | 13.322 ± 0.091 | OCC(O)CO [Glycerin] | – | – | –
18.406 ± 0.121 | 30.544 ± 0.139 | 91.139 ± 0.257 | – | – | OO [Hydrogen Peroxide] | 48.9 (≈ 1.44 mM) | 63.7 (≈ 1.87 mM) | Classification harmful / not harmful to skin by agar coagulation time compared with cell survival analysis [3]: harmful to skin; Agar coagulation time ([3]; sample concentration 17.5 % (w/w)): >1440 min
13.153 ± 0.056 | 13.186 ± 0.069 | 13.185 ± 0.066 | 13.172 ± 0.065 | 13.206 ± 0.087 | CCCCCCCCCCCCCC(=O)OC(C)C [Isopropyl Myristate] | > 10000 | > 10000 | –
18.299 ± 0.078 | 23.378 ± 0.091 | 43.302 ± 0.099 | 253.306 ± 0.124 | >1440 | CC(O)C(=O)O (centres unmarked) [Lactic acid] | 66 (≈ 0.733 mM) | 30.5 (≈ 0.338 mM) | Classification harmful / not harmful to skin by agar coagulation time compared with cell survival analysis [3]: harmful to skin
– | – | – | – | – | Cn1sc(Cl)cc1=O [Methylchloroisothiazolinone] | – | – | Skin cell 3T3 Cytotoxicity IC50 (skin 3T3 cells [7]): 36.5 µg/mL; B16-F10 cytotoxicity IC50 (B16-F10 cells [6]): 58 µg/mL
13.193 ± 0.067 | 13.251 ± 0.077 | 13.296 ± 0.066 | 13.345 ± 0.088 | 13.354 ± 0.083 | NCCO [Monoethanolamine] | 3650 (≈ 59.7 mM) | – | –
32.821 ± 0.082 | 238.511 ± 0.101 | >4320 | >4320 | >4320 | Oc1cccc(O)c1 [Resorcinol] | 4930 (≈ 44.8 mM) | 9860 (≈ 89.5 mM) | –
13.210 ± 0.087 | 13.221 ± 0.091 | 13.144 ± 0.068 | 13.219 ± 0.093 | 13.184 ± 0.063 | O=C(O)c1ccccc1O [Salicylic Acid] | 414 (≈ 3 mM) | 1390 (≈ 10.1 mM) | –
13.260 ± 0.068 | 13.199 ± 0.073 | 13.276 ± 0.081 | 13.254 ± 0.077 | 13.305 ± 0.097 | CC(C)CCCC(C)CCCC(C)CCCCC(C)CCCC(C)CCCC(C)C (centres unmarked) [Squalane] | 5420 (≈ 12.8 mM) | > 10000 | –
13.200 ± 0.080 | 13.209 ± 0.079 | 13.185 ± 0.072 | 13.167 ± 0.066 | 13.192 ± 0.071 | CC(=O)Oc1c(C)c(C)c2c(c1C)CCC(C)(CCC[C@H](C)CCC[C@H](C)CCCC(C)C)O2 (some centres unmarked) [Tocopherol Acetate] | > 10000 | > 10000 | –
– | – | – | – | – | O.O.O=C([O-])CC(O)(CC(=O)[O-])C(=O)[O-].[Na+].[Na+].[Na+] [Trisodium Citrate Dihydrate] | – | – | Skin cell 3T3 Cytotoxicity IC50 (skin 3T3 cells [7]): >10000 µg/mL; B16-F10 cytotoxicity IC50 (B16-F10 cells [6]): 3335.4 µg/mL
13.230 ± 0.084 | 13.197 ± 0.066 | 13.242 ± 0.087 | 13.208 ± 0.100 | 13.203 ± 0.090 | COC(=O)c1ccc(O)cc1 [methyl p-hydroxybenzate] | 4850 (≈ 31.9 mM) | > 10000 | –
– | – | – | – | – | O.O.O.O.O.O.O.O.O.[Na+].[Na+].[S-2] [sodium Sulfide-9-Hydrate] | – | – | Skin cell 3T3 Cytotoxicity IC50 (skin 3T3 cells [7]): >10000 µg/mL; B16-F10 cytotoxicity IC50 (B16-F10 cells [6]): 4187.1 µg/mL
14.356 ± 0.097 | 20.422 ± 0.106 | 43.333 ± 0.112 | – | – | Disodium Lauroamphodiacetate | – | – | Classification harmful / not harmful to skin by agar coagulation time compared with cell survival analysis [3]: harmful to skin; Agar coagulation time [3, 13]: 87.784 ± 0.176 min; B16-F10 cytotoxicity IC50 (B16-F10 cells [8]): 72.8 µg/mL; Skin cell 3T3 Cytotoxicity IC50 (skin 3T3 cells [9]): 55.6 µg/mL

Compound | Agar coagulation time ([3]; sample concentration 1 % (w/w)) [min] | Agar coagulation time ([3]; sample concentration 5 % (w/w)) [min] | Agar coagulation time [3, 10] [min] | Agar coagulation time [3, 11] [min] | Agar coagulation time [3, 12] [min] | IC50 at 24 h [4] [µg/mL] | IC50 at 24 h [5] [µg/mL] | also measured
CCCCCCCCCCCCOS(=O)(=O)O.N [AmmoniumLauryl Sulfate, Ammonium Lauryl Sulfate] | 16.444 ± 0.477 | 18.811 ± 0.987 | 28.372 ± 1.287 | – | – | – | – | Agar coagulation time with increase of sample concentration vs control group [3]: significantly longer; Agar coagulation time [3, 13]: 39.572 ± 1.077 min
CCCCOC(=O)c1ccc(O)cc1 [Butyl Paraben] | 13.186 ± 0.080 | 13.210 ± 0.079 | 13.182 ± 0.076 | 13.141 ± 0.050 | 13.238 ± 0.107 | – | – | –
Cl.NCCCC[C@H](N)C(=O)O [Lysine hydrochloride] | 13.241 ± 0.080 | 13.198 ± 0.077 | 13.238 ± 0.100 | 13.254 ± 0.119 | 13.286 ± 0.147 | – | – | –
Nc1ccc(N)cc1 [p-Phenylenediamine] | 16.245 ± 0.468 | 22.189 ± 0.782 | 27.500 ± 1.073 | 39.489 ± 1.572 | 52.689 ± 1.982 | – | – | Agar coagulation time with increase of sample concentration vs control group [3]: significantly longer
